Converted amounts (≈) assume the structure as drawn.
Experiments:
Test in all cases: MIC against standard strain, plate method
Format in all cases: cell-based
Escherichia coli NIHJ = details: unit assumed
Procedure: (§1) The minimum inhibitory concentrations (MIC) was determined by the plate method disclosed in "Chemotherapy" (Japan), Vol. 16, (1968), pages 98 - 99. The culture medium used was a Heart infusion agar (pH 7.4). The number of the cells per plate used in the inoculum as 10^4 (10^6 cells/ml).

Klebsiella pneumoniae = details: unit assumed
Procedure: as §1

Proteus vulgaris 3027 = details: Proteus vulgaris 3027, standard strain; unit assumed
Procedure: as §1

[1] = system: Pseudomonas aeruginosa I.F.O.; details: unit assumed
Procedure: as §1

[2] = system: Staphylococcus aureus 209p; details: unit assumed
Procedure: as §1

Row | Structure (SMILES) | MIC (Escherichia coli NIHJ) [mg/L] | MIC (Klebsiella pneumoniae) [mg/L] | MIC (Proteus vulgaris 3027) [mg/L] | MIC [1] [mg/L] | MIC [2] [mg/L]
1 | CCCCCCN1CCN(C(=O)N[C@@H](C(=O)N[C@@H]2C(=O)N3[C@@H]2SC(C)(C)[C@@H]3C(=O)O)c2ccccc2)CC1=O [compound 29] | < 1.57 | 3.13 (≈ 5.59 µM) | 3.13 (≈ 5.59 µM) | 12.5 (≈ 22.3 µM) | 3.13 (≈ 5.59 µM)
2 | C=CC(C)N1CCN(C(=O)N[C@@H](C(=O)N[C@@H]2C(=O)N3[C@@H]2SC(C)(C)[C@@H]3C(=O)O)c2ccccc2)CC1=O (single isomer, unassigned) [compound 26] | < 1.57 | 25 (≈ 47.2 µM) | 12.5 (≈ 23.6 µM) | 25 (≈ 47.2 µM) | < 1.57
3 | CC1(C)S[C@@H]2[C@H](NC(=O)[C@H](NC(=O)N3CC(=O)N(Cc4ccccc4)CC3=O)c3ccccc3)C(=O)N2[C@H]1C(=O)O [compound 35] | 6.25 (≈ 10.8 µM) | 25 (≈ 43.1 µM) | 25 (≈ 43.1 µM) | 100 (≈ 173 µM) | 1.57 (≈ 2.71 µM)
4 | CN1CCN(C(=O)N[C@@H](C(=O)N[C@@H]2C(=O)N3[C@@H]2SC(C)(C)[C@@H]3C(=O)O)c2ccccc2)CC1=O [compound 17] | < 1.57 | 50 (≈ 102 µM) | 6.25 (≈ 12.8 µM) | 12.5 (≈ 25.5 µM) | < 1.57
5 | CCCCCCCCCCCCN1CCN(C(=O)N[C@@H](C(=O)N[C@@H]2C(=O)N3[C@@H]2SC(C)(C)[C@@H]3C(=O)O)c2ccccc2)CC1=O [compound 31] | < 1.57 | 6.25 (≈ 9.71 µM) | < 1.57 | 12.5 (≈ 19.4 µM) | < 1.57
6 | C=CCN1CCN(C(=O)N[C@@H](C(=O)N[C@@H]2C(=O)N3[C@@H]2SC(C)(C)[C@@H]3C(=O)O)c2ccccc2)C(=O)C1=O (single isomer, unassigned) [compound 42] | < 1.57 | 6.25 (≈ 11.8 µM) | < 1.57 | 12.5 (≈ 23.6 µM) | 1.57 (≈ 2.96 µM)
7 | CC(C)N1CCN(C(=O)N[C@@H](C(=O)N[C@@H]2C(=O)N3[C@@H]2SC(C)(C)[C@@H]3C(=O)O)c2ccccc2)CC1=O [compound 20] | < 1.57 | 25 (≈ 48.3 µM) | 3.13 (≈ 6.05 µM) | 12.5 (≈ 24.1 µM) | 3.13 (≈ 6.05 µM)
8 | CC1(C)S[C@@H]2[C@H](NC(=O)[C@H](NC(=O)N3CCN(C(=O)c4ccc(Cl)cc4Cl)CC3=O)c3ccccc3)C(=O)N2[C@H]1C(=O)O [compound 10] | < 1.57 | 6.25 (≈ 9.64 µM) | 3.13 (≈ 4.83 µM) | 100 (≈ 154 µM) | < 1.57
9 | CCN1CCN(C(=S)NC(C(=O)NC2C(=O)N3C(C(=O)O)=C(COC(C)=O)CSC23)c2ccccc2)C(=O)C1=O (stereo not shown) [compound 67] | < 0.79 | 3.13 (≈ 5.31 µM) | 12.5 (≈ 21.2 µM) | 100 (≈ 170 µM) | 6.25 (≈ 10.6 µM)
10 | CC(=O)N1CCN(C(=O)N[C@@H](C(=O)N[C@@H]2C(=O)N3[C@@H]2SC(C)(C)[C@@H]3C(=O)O)c2ccccc2)C(=O)C1C (stereo partly shown) [compound 4] | < 1.57 | 12.5 (≈ 23.5 µM) | 3.13 (≈ 5.89 µM) | 25 (≈ 47 µM) | < 1.57
11 | C=CCN1CCN(C(=O)N[C@@H](C(=O)N[C@@H]2C(=O)N3[C@@H]2SC(C)(C)[C@@H]3C(=O)O)c2ccccc2)CC1=O [compound 25] | < 1.57 | 50 (≈ 97 µM) | 3.13 (≈ 6.07 µM) | 25 (≈ 48.5 µM) | < 1.57
12 | CCOC(=O)N1CCN(C(=O)N[C@@H](C(=O)N[C@@H]2C(=O)N3[C@@H]2SC(C)(C)[C@@H]3C(=O)O)c2ccccc2)C(=O)C1 [compound 12] | 3.13 (≈ 5.72 µM) | 6.25 (≈ 11.4 µM) | 12.5 (≈ 22.8 µM) | 50 (≈ 91.3 µM) | < 1.57
13 | C/C=C/CN1CCN(C(=O)N[C@@H](C(=O)N[C@@H]2C(=O)N3[C@@H]2SC(C)(C)[C@@H]3C(=O)O)c2ccccc2)CC1=O [compound 28] | < 1.57 | 25 (≈ 47.2 µM) | 3.13 (≈ 5.91 µM) | 25 (≈ 47.2 µM) | < 1.57
14 | CC1(C)S[C@@H]2[C@H](NC(=O)[C@H](NC(=O)N3CCN(C4CCCC4)C(=O)C3)c3ccccc3)C(=O)N2[C@H]1C(=O)O (single isomer, unassigned) [compound 32] | < 1.57 | 12.5 (≈ 23 µM) | 6.25 (≈ 11.5 µM) | 12.5 (≈ 23 µM) | < 1.57

— patent publication US4110327A, “2,3 Diketo-piperazinocarbonylamino alkanoic acids and derivatives” (Toyama Chemical Co., Ltd., priority 1974, dated 1978)
